The source made the active and inactive calls. The rule behind the calls is not given here.
Test system: CCRIS mutagenicity, Ames/micronucleus/aberration tests
Test: CCRIS mutagenicity studies
[1] = Test System: AMES SALMONELLA TYPHIMURIUM, Strain/Indicator: TA98, Metabolic Activation: HAMSTER, LIVER, S-9, AROCLOR 1254 (10%), Method: PREINCUBATION
[2] = Test System: AMES SALMONELLA TYPHIMURIUM, Strain/Indicator: TA98, Metabolic Activation: NONE, Method: PREINCUBATION
[3] = Test System: AMES SALMONELLA TYPHIMURIUM, Strain/Indicator: TA98, Metabolic Activation: RAT, LIVER, S-9, AROCLOR 1254 (10%), Method: PREINCUBATION
[4] = Test System: AMES SALMONELLA TYPHIMURIUM, Strain/Indicator: TA100, Metabolic Activation: HAMSTER, LIVER, S-9, AROCLOR 1254 (10%), Method: PREINCUBATION
[5] = Test System: AMES SALMONELLA TYPHIMURIUM, Strain/Indicator: TA100, Metabolic Activation: NONE, Method: PREINCUBATION
[6] = Test System: AMES SALMONELLA TYPHIMURIUM, Strain/Indicator: TA100, Metabolic Activation: RAT, LIVER, S-9, AROCLOR 1254 (10%), Method: PREINCUBATION
[7] = Test System: AMES SALMONELLA TYPHIMURIUM, Strain/Indicator: TA1535, Metabolic Activation: HAMSTER, LIVER, S-9, AROCLOR 1254 (10%), Method: PREINCUBATION
[8] = Test System: AMES SALMONELLA TYPHIMURIUM, Strain/Indicator: TA1535, Metabolic Activation: NONE, Method: PREINCUBATION
[9] = Test System: AMES SALMONELLA TYPHIMURIUM, Strain/Indicator: TA1535, Metabolic Activation: RAT, LIVER, S-9, AROCLOR 1254 (10%), Method: PREINCUBATION
[10] = Test System: AMES SALMONELLA TYPHIMURIUM, Strain/Indicator: TA1537, Metabolic Activation: NONE, Method: PREINCUBATION

Measured: mutagenic call

Cc1ccc(Cl)cc1
inactive: Test System: AMES SALMONELLA TYPHIMURIUM, Strain/Indicator: TA97, Metabolic Activation: HAMSTER, LIVER, S-9, AROCLOR 1254 (10%), Method: PREINCUBATION inactive; negative | Test System: AMES SALMONELLA TYPHIMURIUM, Strain/Indicator: TA97, Metabolic Activation: HAMSTER, LIVER, S-9, AROCLOR 1254 (30%), Method: PREINCUBATION inactive; negative | Test System: AMES SALMONELLA TYPHIMURIUM, Strain/Indicator: TA97, Metabolic Activation: NONE, Method: PREINCUBATION inactive; negative | Test System: AMES SALMONELLA TYPHIMURIUM, Strain/Indicator: TA97, Metabolic Activation: RAT, LIVER, S-9, AROCLOR 1254 (10%), Method: PREINCUBATION inactive; negative | Test System: AMES SALMONELLA TYPHIMURIUM, Strain/Indicator: TA97, Metabolic Activation: RAT, LIVER, S-9, AROCLOR 1254 (30%), Method: PREINCUBATION inactive; negative | [1] inactive; negative | Test System: AMES SALMONELLA TYPHIMURIUM, Strain/Indicator: TA98, Metabolic Activation: HAMSTER, LIVER, S-9, AROCLOR 1254 (30%), Method: PREINCUBATION inactive; negative | [2] inactive; negative | Test System: AMES SALMONELLA TYPHIMURIUM, Strain/Indicator: TA98, Metabolic Activation: RAT LIVER S-9, PHENOBARBITAL AND BETA-NAPHTHOFLAVONE, Method: PREINCUBATION inactive; negative | [3] inactive; negative | Test System: AMES SALMONELLA TYPHIMURIUM, Strain/Indicator: TA98, Metabolic Activation: RAT, LIVER, S-9, AROCLOR 1254 (30%), Method: PREINCUBATION inactive; negative | [4] inactive; negative | Test System: AMES SALMONELLA TYPHIMURIUM, Strain/Indicator: TA100, Metabolic Activation: HAMSTER, LIVER, S-9, AROCLOR 1254 (30%), Method: PREINCUBATION inactive; negative | [5] inactive; negative | Test System: AMES SALMONELLA TYPHIMURIUM, Strain/Indicator: TA100, Metabolic Activation: RAT LIVER S-9, PHENOBARBITAL AND BETA-NAPHTHOFLAVONE, Method: PREINCUBATION inactive; negative | [6] inactive; negative | Test System: AMES SALMONELLA TYPHIMURIUM, Strain/Indicator: TA100, Metabolic Activation: RAT, LIVER, S-9, AROCLOR 1254 (30%), Method: PREINCUBATION inactive; negative | Test System: AMES SALMONELLA TYPHIMURIUM, Strain/Indicator: TA102, Metabolic Activation: NONE, Method: PREINCUBATION inactive; negative | Test System: AMES SALMONELLA TYPHIMURIUM, Strain/Indicator: TA102, Metabolic Activation: RAT LIVER S-9, PHENOBARBITAL AND BETA-NAPHTHOFLAVONE, Method: PREINCUBATION inactive; negative | Test System: AMES SALMONELLA TYPHIMURIUM, Strain/Indicator: TA104, Metabolic Activation: NONE, Method: PREINCUBATION inactive; negative | Test System: AMES SALMONELLA TYPHIMURIUM, Strain/Indicator: TA104, Metabolic Activation: RAT LIVER S-9, PHENOBARBITAL AND BETA-NAPHTHOFLAVONE, Method: PREINCUBATION inactive; negative | [7] inactive; negative | Test System: AMES SALMONELLA TYPHIMURIUM, Strain/Indicator: TA1535, Metabolic Activation: HAMSTER, LIVER, S-9, AROCLOR 1254 (30%), Method: PREINCUBATION inactive; negative | [8] inactive; negative | Test System: AMES SALMONELLA TYPHIMURIUM, Strain/Indicator: TA1535, Metabolic Activation: RAT LIVER S-9, PHENOBARBITAL AND BETA-NAPHTHOFLAVONE, Method: PREINCUBATION inactive; negative | [9] inactive; negative | Test System: AMES SALMONELLA TYPHIMURIUM, Strain/Indicator: TA1535, Metabolic Activation: RAT, LIVER, S-9, AROCLOR 1254 (30%), Method: PREINCUBATION inactive; negative | Test System: AMES SALMONELLA TYPHIMURIUM, Strain/Indicator: TA1537, Metabolic Activation: HAMSTER, LIVER, S-9, AROCLOR 1254 (30%), Method: PREINCUBATION inactive; negative | [10] inactive; negative | Test System: AMES SALMONELLA TYPHIMURIUM, Strain/Indicator: TA1537, Metabolic Activation: RAT LIVER S-9, PHENOBARBITAL AND BETA-NAPHTHOFLAVONE, Method: PREINCUBATION inactive; negative | Test System: AMES SALMONELLA TYPHIMURIUM, Strain/Indicator: TA1537, Metabolic Activation: RAT, LIVER, S-9, AROCLOR 1254 (30%), Method: PREINCUBATION inactive; negative | Test System: E.COLI, Strain/Indicator: WP2UVRA/PKM101, Metabolic Activation: NONE, Method: PREINCUBATION inactive; negative | Test System: E.COLI, Strain/Indicator: WP2UVRA/PKM101, Metabolic Activation: RAT LIVER S-9, PHENOBARBITAL AND BETA-NAPHTHOFLAVONE, Method: PREINCUBATION inactive; negative | Test System: E.COLI, Strain/Indicator: WP2UVRA, Metabolic Activation: NONE, Method: PREINCUBATION inactive; negative | Test System: E.COLI, Strain/Indicator: WP2UVRA, Metabolic Activation: RAT LIVER S-9, PHENOBARBITAL AND BETA-NAPHTHOFLAVONE, Method: PREINCUBATION inactive; negative

CCCCCCCCCc1ccccc1Oc1ccccc1CCCCCCCCC
inactive: Test System: AMES SALMONELLA TYPHIMURIUM, Strain/Indicator: TA97, Metabolic Activation: NONE, Method: STANDARD PLATE inactive; negative | Test System: AMES SALMONELLA TYPHIMURIUM, Strain/Indicator: TA97, Metabolic Activation: S-9, Method: STANDARD PLATE inactive; negative | Test System: AMES SALMONELLA TYPHIMURIUM, Strain/Indicator: TA98, Metabolic Activation: NONE, Method: STANDARD PLATE inactive; negative | Test System: AMES SALMONELLA TYPHIMURIUM, Strain/Indicator: TA98, Metabolic Activation: S-9, Method: STANDARD PLATE inactive; negative | Test System: AMES SALMONELLA TYPHIMURIUM, Strain/Indicator: TA100, Metabolic Activation: NONE, Method: STANDARD PLATE inactive; negative | Test System: AMES SALMONELLA TYPHIMURIUM, Strain/Indicator: TA100, Metabolic Activation: S-9, Method: STANDARD PLATE inactive; negative | Test System: AMES SALMONELLA TYPHIMURIUM, Strain/Indicator: TA102, Metabolic Activation: NONE, Method: STANDARD PLATE inactive; negative | Test System: AMES SALMONELLA TYPHIMURIUM, Strain/Indicator: TA102, Metabolic Activation: S-9, Method: STANDARD PLATE inactive; negative | Test System: E.COLI, Strain/Indicator: WP2 (PKM101), Metabolic Activation: NONE, Method: STANDARD PLATE inactive; negative | Test System: E.COLI, Strain/Indicator: WP2 (PKM101), Metabolic Activation: S-9, Method: STANDARD PLATE inactive; negative

N[C@H](Cc1ccccc1)C(=O)O
inactive: [1] inactive; negative | [2] inactive; negative | [3] inactive; negative | [4] inactive; negative | [5] inactive; negative | [6] inactive; negative | [7] inactive; negative | [8] inactive; negative | [9] inactive; negative | Test System: AMES SALMONELLA TYPHIMURIUM, Strain/Indicator: TA1537, Metabolic Activation: HAMSTER, LIVER, S-9, AROCLOR 1254 (10%), Method: PREINCUBATION inactive; negative | [10] inactive; negative | Test System: AMES SALMONELLA TYPHIMURIUM, Strain/Indicator: TA1537, Metabolic Activation: RAT, LIVER, S-9, AROCLOR 1254 (10%), Method: PREINCUBATION inactive; negative
